The text below walks through data of patent US8546380B2, “Aminodihydrothiazine derivatives” (Shionogi & Co., Ltd., priority 2005, dated 2013).

pIC50: −log10 of the molar value. Like-named read-outs stand apart in the source and are kept apart here.

The target of data set [1] is recombinant human BACE-1 protein (Homo sapiens (Human), UniProt P56817). The experiment in a line: Measurement of Inhibition of β-Secretase Activity. The following applies: 3 h at 30° C., pH5.0, read-out: IC50 value. The class given is biochemical. In outline: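 Recombinant human BACE-1 incubated with compound and Eu-cryptate-labelled biotinylated peptide substrate 3 h at 30° C in 50 mM sodium acetate pH 5.0, 0.008% Triton X-100. Streptavidin-XL665 in KF-containing phosphate buffer pH 7.0 then added, 1 h at 30° C, for time-resolved FRET read-out.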
Sequence of recombinant human BACE-1 protein (P56817 46-501): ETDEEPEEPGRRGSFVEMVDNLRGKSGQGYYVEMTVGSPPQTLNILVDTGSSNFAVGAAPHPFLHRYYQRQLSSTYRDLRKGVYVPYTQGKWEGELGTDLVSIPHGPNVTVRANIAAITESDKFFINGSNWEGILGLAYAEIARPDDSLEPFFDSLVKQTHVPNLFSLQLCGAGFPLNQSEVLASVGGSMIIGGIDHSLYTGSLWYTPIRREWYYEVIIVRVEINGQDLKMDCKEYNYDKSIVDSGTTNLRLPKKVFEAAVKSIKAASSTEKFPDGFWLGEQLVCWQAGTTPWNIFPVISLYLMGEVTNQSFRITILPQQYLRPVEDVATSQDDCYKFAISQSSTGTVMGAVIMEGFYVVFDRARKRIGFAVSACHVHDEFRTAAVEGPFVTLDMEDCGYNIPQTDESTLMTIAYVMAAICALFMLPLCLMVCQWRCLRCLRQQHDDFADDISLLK

Where [2] appears, read: recombinant human BACE-1 protein.
Setting [3] is: fluorescence-quenched peptide substrate 18 nM, BACE-1 7.4 nM.

Turning to `CC1(c2cccc(OCCCc3ccc(Cl)cc3)c2)CCSC(N)=N1` (stereo not drawn) [Compound 1207], the melting point (commonly the temperature of the solid-liquid transition) lay in the range of 106 to 108 °C. For the same compound, the negative logarithm of the IC50 (pIC50) (in general, the IC50 on a negative log10 scale, so that one unit is a factor of ten) in data set [1] (setting [2]) is 5.40.
`CC1(c2cc(NC(=O)c3ccc(Cl)cn3)cc(C(=O)Nc3ccccc3)c2)CCSC(N)=N1` (stereo not drawn) [Compound 1217] returned a melting point of 263 to 266 °C. In data set [1] (setting [3]), the pIC50 was over 4.00.
For `CC1(c2cccc(CNC(=O)c3ccc(F)cc3)c2)CCSC(N)=N1.Cl` (stereo not drawn) [Compound 1241], the melting point lay in the range of 194 to 195 °C. For the same compound, the negative logarithm of the IC50 (pIC50) in data set [1] (setting [3]) was over 4.00.
In turn, `CC1(c2cccc(NC(=O)c3ccc(C(F)(F)F)cn3)c2)CCSC(N)=N1.Cl` (stereo not drawn) [Compound 1244] yielded a melting point of 268 to 288 °C. Besides, the negative logarithm of the IC50 (pIC50) in data set [1] (setting [2]) is 6.89.
Consider `CC1(c2cccc(/C=C\CCc3ccc(Cl)cc3)c2)CCSC(N)=N1.Cl` (stereo not drawn) [Compound 1261], for which the melting point lay in the range of 179 to 180 °C. Further, the pIC50 in data set [1] (setting [3]) was over 4.00.
`CC1(c2cc(Br)cc(NC(=O)c3ccc(Br)cc3)c2)CCSC(N)=N1.Cl` (stereo not drawn) [Compound 1262] gave a melting point of 278 to 281 °C. Besides, in data set [1] (setting [2]), the pIC50 is 6.85.
